Measurements published in US20040166509A1, “Detecting hormonally active compounds” (priority 2002, published 2004).

System: liver cDNAs of adult male LMB
Experiment: LMB gene arrays of SSH-derived cDNAs: liver of fish treated with androgens
Format: in vivo, largemouth bass (LMB)
Details: DHT 62.5 μg/g, 11-KT 20 μg/g vs DMSO
Method: For each cDNA clone, the general background of each membrane was subtracted from the average value of the duplicate spots on the membrane. The values were then normalized to the average value of seven cDNA clones specific to ribosomal genes and the fold change calculated by dividing the mean of each treatment by the mean of the control. Those genes which changed by 2-fold or more were graphed. Significant differences (p<0.05) were determined by ANOVA and secondary testing was done by using […].

`C[C@]12CC(=O)[C@H]3[C@@H](CCC4=CC(=O)CC[C@@]43C)[C@@H]1CC[C@@H]2O` [11-KT, 11-ketotestosterone] was tested, and the “24-1 (LOC L1) change” value was “down”, the “ALPHA TUBULIN (LOC M2) change” value was “down” and the “COMPLEMENT C3 (LOC L3) change” value was “down”. For the same compound, the “CYSTATIN (LOC O3) change” value was “down-regulated”, the “ER GAMMA 5′ 2F (LOC L14) change” value was “down” and the “EST SEASONAL 9 (LOC D13) change” value was “up (Those genes which changed by 2-fold or more were graphed)”. For the same compound, the “EST SEASONAL 51 (LOC K11) change” value was “down”, the “EST SEASONAL 55 (LOC M4) change” value was “down” and the “EST SEASONAL 62 (LOC B14) change” value was “up (Those genes which changed by 2-fold or more were graphed)”. The “EST SEASONAL 64 (LOC H7) change” value was “up (Those genes which changed by 2-fold or more were graphed)”, the “EST SEASONAL 72 (LOC K12) change” value was “down” and the “EST SEASONAL F21 (LOC O13) change” value was “down”. The “ESTP4_H07 (LOC K13) change” value was “up (Those genes which changed by 2-fold or more were graphed)”, the “GP3 11C (LOC K1) change” value was “down” and the “LDL RC (LOC J10) change” value was “down”. The “LMB24-1 (Unknown) differentially expressed by androgens” value was “dn-reg DHT;”, the “LMB151 vitellogenin receptor differentially expressed by” value was “Dn-reg” and the “LMB CYSTATIN-PREC (Cystatin precursor) differentially expressed by” value was “Dn-reg 11-KT”. The “LMB EST--SEASONAL_64 differentially expressed by” value was “up-reg DHT;”, the “LMB EST--SEASONAL_72 differentially expressed by” value was “Dn-reg DHT;” and the “LMB EST--SEASONAL_F17 differentially expressed by” value was “Dn-reg 11-KT”. The “LMB EST-SEASONAL_55 differentially expressed by” value was “Dn-reg 11-KT;”, the “LMB EST-SEASONALf17 differentially expressed by” value was “down by 11KT” and the “LMB RIKEN 1110001M01 differentially expressed by” value was “up by 11KT;”. The “LMB_ALPHA-TUBULIN (alpha tubulin) differentially expressed by” value was “Dn-reg 11-kt;”, the “LMB_COMPLEMENT-C3 (Complement C3 precursor) differentially expressed by” value was “Dn-reg DHT;” and the “LMB_ER-GAMMA ESTROGEN RECEPTOR GAMMA differentially expressed by (11-KT)” value was “Dn-reg 11-KT;”. For the same compound, the “LMB_EST-SEASONAL_09 differentially expressed by” value was “up-reg DHT;”, the “LMB_EST-SEASONAL_11 differentially expressed by” value was “dn-reg 11-KT” and the “LMB_EST-SEASONAL_51 differentially expressed by” value was “dn 11-KT;”. For the same compound, the “LMB_ESTDHT64 differentially expressed by” value was “up by 11KT”, the “LMB_ESTDHT_62 differentially expressed by” value was “up-reg DHT;” and the “LMB_LDL RC (LDL receptor) differentially expressed by” value was “Dn-reg DHT;”. The “LMB_RXR INTERACT PROT (Retinoid X receptor interacting protein) differentially expressed by” value was “Dn-reg 11-KT;”, the “LMB_SOL-CAR-25A#5 (solute carrier family 25 alpha member 5) differentially expressed by” value was “up-reg DHT;” and the “LMB_SSAT (SSAT) differentially expressed by” value was “up-reg DHT;”. For the same compound, the “LMB_WARM-WATER ACC PROTEIN (Warm water acclimation-related protein) differentially expressed by” value was “up-reg 11-KT”, the “LMB_ZPC1 (ZPC1) differentially expressed by” value was “up-reg DHT;” and the “LMB_ZPC4 (ZPC4) differentially expressed by” value was “up-reg DHT;”. For the same compound, the “PTTP (LOC O10) change” value was “up-”, the “RETINOL DEHYDROGENASE (LOC M11) change” value was “up (Those genes which changed by 2-fold or more were graphed)” and the “RIKEN 1110001M01 (LOC O11) change” value was “up (Those genes which changed by 2-fold or more were graphed)”. For the same compound, the “RXR INTERACTING PROT (LOC L11) change” value was “down”, the “SOLUTE CARRIER (LOC B13) change” value was “up (Those genes which changed by 2-fold or more were graphed)” and the “SSAT (LOC C13) change” value was “up (Those genes which changed by 2-fold or more were graphed)”. The “TFIID (change to liver regeration related protein) (LOC M12) change” value was “down”, the “VTG PRECURSOR (LOC D14) change” value was “up (Those genes which changed by 2-fold or more were graphed)” and the “VTG RC (LOC M14) change” value was “down”. The “ZPC1 (LOC H14) change” value was “up (Those genes which changed by 2-fold or more were graphed)”, the “ZPC4 (LOC I14) change” value was “up (Those genes which changed by 2-fold or more were graphed)” and the “warm water acclim (LOC E14) change” value was “up (Those genes which changed by 2-fold or more were graphed)”.
